Laboratory results taken from the supplement of paper PMC10307832.

Columns and labels:
Assay in all cases: relative viability (nuclei count vs DMSO), 5 days (fraction); higher = more cells survive
[1] = compound: CC1=CC(=NN1)NC2=CC(=NC(=N2)/C=C/C3=CC=CC=C3)N4CCN(CC4)C + CCNC(=O)c1noc(-c2cc(C(C)C)c(O)cc2O)c1-c1ccc(CN2CCOCC2)cc1 [Luminespib] (partner 0.01 µM)
Procedure, shortened: (§1)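 Lung cancer cell lines in 1536-well plates were dosed by pin tool the day after seeding, either with one drug alone or with a fixed anchor-drug dose plus five library-drug doses (not always all listed) in √10 steps. After 5 days, cells were fixed and their nuclei stained in one step (final 0.05% Triton X-100, 1% formaldehyde, 1 ug/ml Hoechst), then counted on 4× images. Relative viability is the nuclei count in treated wells divided by that in vehicle wells. Values are medians of duplicate plates.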

Obatoclax + Luminespib = compound: COC1=CC(c2cc3ccccc3[nH]2)=N/C1=C\c1[nH]c(C)cc1C [Obatoclax] + CCNC(=O)c1noc(-c2cc(C(C)C)c(O)cc2O)c1-c1ccc(CN2CCOCC2)cc1 [Luminespib] (partner 0.01 µM)
Procedure, shortened: as §1

Bortezomib + Pictilisib = compound: CC(C)C[C@H](NC(=O)[C@H](Cc1ccccc1)NC(=O)c1cnccn1)B(O)O [Bortezomib] + CS(=O)(=O)N1CCN(Cc2cc3nc(-c4cccc5[nH]ncc45)nc(N4CCOCC4)c3s2)CC1 [Pictilisib] (partner 1 µM)
Procedure, shortened: as §1

Bortezomib + Pemetrexed = compound: CC(C)C[C@H](NC(=O)[C@H](Cc1ccccc1)NC(=O)c1cnccn1)B(O)O [Bortezomib] + Nc1nc2[nH]cc(CCc3ccc(C(=O)N[C@@H](CCC(=O)O)C(=O)O)cc3)c2c(=O)[nH]1 [Pemetrexed] (partner 0.2 µM)
Procedure, shortened: as §1

Cell Line	relative viability ([1]; first compound 0.08 µM)	relative viability ([1]; first compound 0.253 µM)	relative viability ([1]; first compound 0.8 µM)	relative viability ([1]; first compound 2.53 µM)	relative viability ([1]; first compound 8 µM)	relative viability (Obatoclax + Luminespib; first compound 0.01 µM)	relative viability (Obatoclax + Luminespib; first compound 0.03162 µM)	relative viability (Obatoclax + Luminespib; first compound 0.1 µM)	relative viability (Obatoclax + Luminespib; first compound 0.3162 µM)	relative viability (Obatoclax + Luminespib; first compound 1 µM)	relative viability (Bortezomib + Pictilisib; first compound 0.0002 µM)	relative viability (Bortezomib + Pictilisib; first compound 0.000632 µM)	relative viability (Bortezomib + Pictilisib; first compound 0.002 µM)	relative viability (Bortezomib + Pictilisib; first compound 0.006325 µM)	relative viability (Bortezomib + Pictilisib; first compound 0.02 µM)	relative viability (Bortezomib + Pemetrexed; first compound 0.0002 µM)	relative viability (Bortezomib + Pemetrexed; first compound 0.000632 µM)	relative viability (Bortezomib + Pemetrexed; first compound 0.002 µM)	relative viability (Bortezomib + Pemetrexed; first compound 0.006325 µM)	relative viability (Bortezomib + Pemetrexed; first compound 0.02 µM)
201T	1.01	1.04	1.01	0.947	0.266	1.1	1.04	1.06	1.08	1.12	0.677	0.707	0.698	0.684	0.541	0.338	0.327	0.321	0.353	0.308
A549	–	–	–	–	–	–	–	–	–	–	0.507	0.531	0.468	0.049	0.0452	–	–	–	–	–
A-427	0.775	0.984	0.873	0.361	0.105	0.952	0.962	0.916	0.775	0.674	0.673	0.626	0.771	0.703	0.175	0.914	0.971	0.968	0.235	0.182
ABC-1	0.497	0.51	0.961	0.701	0.19	0.551	0.555	–	0.322	0.397	0.285	0.372	0.292	0.24	0.258	–	–	–	–	–
BEN	0.634	0.207	0.22	0.217	0.137	0.507	0.243	–	0.26	0.291	0.542	0.557	0.531	0.366	0.24	0.75	0.806	0.88	0.529	0.373
CAL-12T	0.429	0.512	0.356	0.123	0.074	0.493	0.292	0.273	0.122	0.118	0.155	0.368	0.427	0.211	0.151	1.25	1.26	1.24	1.15	0.123
COR-L23	0.723	0.813	0.593	0.398	0.0972	0.556	0.638	0.45	0.178	0.115	0.922	0.777	0.609	0.0347	0.0399	0.186	0.196	0.201	0.0763	0.0792
COR-L 105	0.553	0.784	0.736	0.654	0.197	0.97	0.908	0.724	1.75	0.236	0.377	0.324	0.389	0.322	0.326	1.03	1.12	1.13	0.494	0.303
Calu-6	–	–	–	–	–	–	–	–	–	–	0.829	0.925	0.726	0.102	0.0777	–	–	–	–	–
ChaGo-K-1	0.644	0.613	0.629	0.384	0.159	0.718	0.565	0.487	0.561	0.426	–	–	0.707	0.29	0.207	0.265	0.238	0.249	0.267	0.192
